Data from PubChem BioAssay AID330 (DTP/NCI, 2004).
Where “and” joins values, the source holds several entries; their conditions need not be identical. Identical values can stand only once. Toxic doses and inconclusive results are not listed. How the source made its calls: active means survival T/C of 150% or more; inactive means T/C below 125% in these data. Peptide text beside a SMILES is read from it. * marks the point of attachment. Trt = c1ccc(C(c2ccccc2)(c2ccccc2)*)cc1; Cbz = O=C(OCc1ccccc1)*; Boc = CC(C)(C)OC(=O)*; OBn = c1ccc(CO*)cc1; Bn = c1ccc(C*)cc1

Tested on: P388 leukemia ip, CD2F1 mice, survival T/C
Experiment: NCI In Vivo Anticancer Drug Screen. Data for tumor model P388 Leukemia (intraperitoneal) in CD2F1 (CDF1) mice
Conditions: endpoint: median survival time, higher = longer survival
Outline: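 Mice carrying the transplanted tumor received test compound or vehicle. Survival was recorded in each group, and the value is the treated-group measurement divided by that of the vehicle-treated control group.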

[1] = dose: 6.25 mg/kg/injection, schedule: Q01DX009 (ip), vehicle: saline with Tween-80
[2] = dose: 12.5 mg/kg/injection, schedule: Q01DX009 (ip), vehicle: saline with Tween-80
[3] = dose: 25.0 mg/kg/injection, schedule: Q01DX009 (ip), vehicle: saline with Tween-80
[4] = dose: 50.0 mg/kg/injection, schedule: Q01DX005 (ip), vehicle: saline with Tween-80
[5] = dose: 100.0 mg/kg/injection, schedule: Q01DX005 (ip), vehicle: saline with Tween-80
[6] = dose: 200.0 mg/kg/injection, schedule: Q01DX005 (ip), vehicle: saline with Tween-80
[7] = dose: 50.0 mg/kg/injection, schedule: Q01DX001 (ip), vehicle: saline with Tween-80
[8] = dose: 100.0 mg/kg/injection, schedule: Q01DX001 (ip), vehicle: saline with Tween-80
[9] = dose: 200.0 mg/kg/injection, schedule: Q01DX001 (ip), vehicle: saline with Tween-80
[10] = dose: 100.0 mg/kg/injection, schedule: Q04DX003 (ip), vehicle: saline with Tween-80
[11] = dose: 200.0 mg/kg/injection, schedule: Q04DX003 (ip), vehicle: saline with Tween-80
[12] = dose: 50.0 mg/kg/injection, schedule: Q01DX009 (ip), vehicle: saline
[13] = dose: 100.0 mg/kg/injection, schedule: Q01DX009 (ip), vehicle: saline
[14] = dose: 50.0 mg/kg/injection, schedule: Q01DX005 (ip), vehicle: Klucel (hydroxypropylcellulose) (HPC)
[15] = dose: 100.0 mg/kg/injection, schedule: Q01DX005 (ip), vehicle: Klucel (hydroxypropylcellulose) (HPC)
[16] = dose: 200.0 mg/kg/injection, schedule: Q01DX005 (ip), vehicle: Klucel (hydroxypropylcellulose) (HPC)
[17] = dose: 50.0 mg/kg/injection, schedule: Q04DX003 (ip), vehicle: saline with Tween-80
[18] = dose: 100.0 mg/kg/injection, schedule: Q04DX002 (ip), vehicle: saline with Tween-80
[19] = dose: 200.0 mg/kg/injection, schedule: Q04DX002 (ip), vehicle: saline with Tween-80
[20] = dose: 100.0 mg/kg/injection, schedule: Q04DX003 (ip), vehicle: saline

Measured: T/C

Nc1[nH]c(=O)ncc1C(=O)NC(CO)C(=O)O (stereo unspecified)
inactive: [1] 90 % of control | [2] 100 % of control | [3] 95 % of control

CCOC(=O)C1CSC(c2c(COP(=O)(O)O)cnc(C)c2O)N1 (stereo unspecified)
inactive: [4] 96 % of control | [5] 100 % of control | [6] 94 % of control

CCCCCCCC(=O)Nc1cc2c3c(c1)CCCN3CCC2
inactive: [7] 100 % of control | [8] 95 % of control | [9] 90 % of control

CSc1nc(SC)c2c(CNC(C)=O)cn(Cc3ccccc3)c2n1
inactive: [7] 87 % of control | [9] 86 % of control and 87 % of control

COC(=O)C(Cc1ccccc1)NCCNC(C)=O (stereo unspecified)
inactive: [10] 95 % of control | [11] 95 % of control

CCOC(=O)C1C2(C)NC(=O)C1(Cc1ccccc1)c1ccc(O)cc1O2 (stereo unspecified)
inactive: [4] 95 % of control | [5] 96 % of control | [6] 95 % of control

CC1=Nc2ccc(C)cc2N=C(C)C1
inactive: [12] 86 % of control | [13] 91 % of control

CSC(=S)N1CCN(C(=S)SC)C1=O
inactive: [14] 108 % of control | [15] 96 % of control | [16] 91 % of control

COc1cc(CC2c3cc(OC)c(OC)cc3CCN2C)c(Oc2cc3c(cc2OC)-c2c(O)c(OC)cc4c2C(C3)N(C)CC4)cc1OC (stereo unspecified)
inactive: dose: 12.5 mg/kg/injection, schedule: Q04DX003 (ip), vehicle: saline with Tween-80 101 % of control | dose: 25.0 mg/kg/injection, schedule: Q04DX003 (ip), vehicle: saline with Tween-80 101 % of control | [17] 100 % of control | [11] 89 % of control | dose: 400.0 mg/kg/injection, schedule: Q04DX003 (ip), vehicle: saline with Tween-80 97 % of control

COc1ccccc1N=Nc1c(O)n(-c2ccccc2Cl)c(=S)n(-c2ccccc2OC)c1=O
inactive: dose: 50.0 mg/kg/injection, schedule: Q01DX001 (ip), vehicle: Klucel (hydroxypropylcellulose) (HPC) 102 % of control | dose: 100.0 mg/kg/injection, schedule: Q01DX001 (ip), vehicle: Klucel (hydroxypropylcellulose) (HPC) 102 % of control | dose: 200.0 mg/kg/injection, schedule: Q01DX001 (ip), vehicle: Klucel (hydroxypropylcellulose) (HPC) 101 % of control

CCOc1nc(N)nc(C)c1N=Nc1cccc(Cl)c1
inactive: dose: 60.0 mg/kg/injection, schedule: Q01DX005 (ip), vehicle: Klucel + Tween-80 101 % of control | dose: 120.0 mg/kg/injection, schedule: Q01DX005 (ip), vehicle: Klucel + Tween-80 107 % of control | dose: 240.0 mg/kg/injection, schedule: Q01DX005 (ip), vehicle: Klucel + Tween-80 100 % of control

N#Cc1c(C#N)c(O)c2c(N)cccc2c1O
inactive: [18] 105 % of control | [19] 108 % of control

CC(CC/C=C/CO)C1CC(OS(=O)(=O)O)C2(O)C1(C)CCC1C3CCC(O)C(O)C3C(O)CC12O (stereo unspecified)
inactive: dose: 5.0 mg/kg/injection, schedule: Q01DX005 (ip), vehicle: Klucel (hydroxypropylcellulose) (HPC) 100 % of control | dose: 10.0 mg/kg/injection, schedule: Q01DX005 (ip), vehicle: Klucel (hydroxypropylcellulose) (HPC) 106 % of control | dose: 20.0 mg/kg/injection, schedule: Q01DX005 (ip), vehicle: Klucel (hydroxypropylcellulose) (HPC) 98 % of control | dose: 40.0 mg/kg/injection, schedule: Q01DX005 (ip), vehicle: Klucel (hydroxypropylcellulose) (HPC) 95 % of control

O=NN(CCCl)C(=O)OCc1ccccc1
inactive: dose: 3.12 mg/kg/injection, schedule: Q01DX001 (ip), vehicle: saline with Tween-80 101 % of control | dose: 6.25 mg/kg/injection, schedule: Q01DX001 (ip), vehicle: saline with Tween-80 100 % of control and 123 % of control | dose: 12.5 mg/kg/injection, schedule: Q01DX001 (ip), vehicle: saline with Tween-80 108 % of control and 113 % of control | dose: 25.0 mg/kg/injection, schedule: Q01DX001 (ip), vehicle: saline with Tween-80 110 % of control and 123 % of control

CCc1ccccc1NC(=O)C(=O)CC(=O)c1ccc(Cl)s1
inactive: [18] 100 % of control | [19] 102 % of control | dose: 400.0 mg/kg/injection, schedule: Q04DX002 (ip), vehicle: saline with Tween-80 103 % of control

CC1(C)S[C@@H]2[C@H](NC(=O)C3(N)CCCCC3)C(=O)N2[C@H]1C(=O)O
inactive: [14] 103 % of control | [15] 103 % of control | [16] 102 % of control

CN(C)CCOCC(O)(c1ccccc1)c1ccccc1
inactive: dose: 50.0 mg/kg/injection, schedule: Q01DX009 (ip), vehicle: suspension in saline 100 % of control | dose: 100.0 mg/kg/injection, schedule: Q01DX009 (ip), vehicle: suspension in saline 103 % of control

CCCCCCCCCCCCN1C(=O)[N+](C)(C)N=C1[O-]
inactive: [20] 113 % of control | dose: 200.0 mg/kg/injection, schedule: Q04DX003 (ip), vehicle: saline 105 % of control | dose: 400.0 mg/kg/injection, schedule: Q04DX003 (ip), vehicle: saline 105 % of control

Cc1cc(C)c2nccc(/C=C/c3ccc(N(C)C)cc3)c2c1
inactive: dose: 50.0 mg/kg/injection, schedule: Q01DX009 (ip), vehicle: saline with Tween-80 110 % of control | dose: 100.0 mg/kg/injection, schedule: Q01DX009 (ip), vehicle: saline with Tween-80 108 % of control | dose: 200.0 mg/kg/injection, schedule: Q01DX009 (ip), vehicle: saline with Tween-80 116 % of control | dose: 400.0 mg/kg/injection, schedule: Q01DX009 (ip), vehicle: saline with Tween-80 91 % of control

c1cc(-c2cc3cc(C4=NCCN4)ccc3s2)ccc1C1=NCCN1
inactive: dose: 25.0 mg/kg/injection, schedule: Q04DX003 (ip), vehicle: saline 115 % of control | dose: 50.0 mg/kg/injection, schedule: Q04DX003 (ip), vehicle: saline 111 % of control | [20] 98 % of control

NCCCCC(NC(=O)OCc1ccccc1)C(=O)NC(CCCCN)C(=O)NC(CCCCN)C(=O)NC(Cc1c[nH]c2ccccc12)C(=O)OCc1ccccc1 (stereo unspecified) (Cbz-KKKW-OBn; configuration not given here)
inactive: [14] 100 % of control | [15] 96 % of control | [16] 100 % of control

C=CCSc1nc(-c2ccc(Cl)cc2)c(C#N)c(=O)[nH]1
inactive: [8] 100 % of control | [9] 97 % of control | dose: 400.0 mg/kg/injection, schedule: Q01DX001 (ip), vehicle: saline with Tween-80 92 % of control

Cc1n[nH]c2ccc([N+](=O)[O-])cc2c1=O
inactive: [1] 100 % of control | [2] 100 % of control | [3] 90 % of control | [17] 100 % of control | [10] 95 % of control | [11] 100 % of control

CCOC(=O)/C=C(\C)C(F)(F)F
inactive: dose: 15.0 mg/kg/injection, schedule: Q01DX005 (ip), vehicle: saline with Tween-80 95 % of control | dose: 30.0 mg/kg/injection, schedule: Q01DX005 (ip), vehicle: saline with Tween-80 100 % of control and 103 % of control | dose: 60.0 mg/kg/injection, schedule: Q01DX005 (ip), vehicle: saline with Tween-80 98 % of control and 104 % of control and 94 % of control | dose: 120.0 mg/kg/injection, schedule: Q01DX005 (ip), vehicle: saline with Tween-80 100 % of control and 101 % of control | dose: 240.0 mg/kg/injection, schedule: Q01DX005 (ip), vehicle: saline with Tween-80 106 % of control and 111 % of control

CCOC(=O)CNC(=O)C(CSCc1ccccc1)NC(=O)C(CSC(c1ccccc1)(c1ccccc1)c1ccccc1)NC(=O)OC(C)(C)C (stereo unspecified) (Boc-Cys(Trt)-Cys(Bn)-Gly-OEt; configuration not given here)
inactive: [14] 101 % of control | [15] 101 % of control | [16] 99 % of control

C=CCn1c(=O)n(CC)c(=O)c2[nH]c(Cl)nc21
inactive: dose: 15.0 mg/kg/injection, schedule: Q01DX009 (ip), vehicle: saline 106 % of control | dose: 30.0 mg/kg/injection, schedule: Q01DX009 (ip), vehicle: saline 110 % of control | dose: 60.0 mg/kg/injection, schedule: Q01DX009 (ip), vehicle: saline 104 % of control

N#C/C(=C\c1ccccc1Cl)C(N)=S
inactive: [12] 100 % of control | [13] 101 % of control | dose: 200.0 mg/kg/injection, schedule: Q01DX009 (ip), vehicle: saline 97 % of control
